{"source": "paper PMC9851200", "about": "“Multiparameter phenotypic screening for endogenous TFEB and TFE3 translocation identifies novel chemical series modulating lysosome function” (Autophagy, 2022)", "format_in_all_cases": "binding", "key": {"[1]": {"target": "T1, kinases (KINOMEscan panel) (Homo sapiens, UniProt P43403)", "T1 sequence (P43403 1-619)": "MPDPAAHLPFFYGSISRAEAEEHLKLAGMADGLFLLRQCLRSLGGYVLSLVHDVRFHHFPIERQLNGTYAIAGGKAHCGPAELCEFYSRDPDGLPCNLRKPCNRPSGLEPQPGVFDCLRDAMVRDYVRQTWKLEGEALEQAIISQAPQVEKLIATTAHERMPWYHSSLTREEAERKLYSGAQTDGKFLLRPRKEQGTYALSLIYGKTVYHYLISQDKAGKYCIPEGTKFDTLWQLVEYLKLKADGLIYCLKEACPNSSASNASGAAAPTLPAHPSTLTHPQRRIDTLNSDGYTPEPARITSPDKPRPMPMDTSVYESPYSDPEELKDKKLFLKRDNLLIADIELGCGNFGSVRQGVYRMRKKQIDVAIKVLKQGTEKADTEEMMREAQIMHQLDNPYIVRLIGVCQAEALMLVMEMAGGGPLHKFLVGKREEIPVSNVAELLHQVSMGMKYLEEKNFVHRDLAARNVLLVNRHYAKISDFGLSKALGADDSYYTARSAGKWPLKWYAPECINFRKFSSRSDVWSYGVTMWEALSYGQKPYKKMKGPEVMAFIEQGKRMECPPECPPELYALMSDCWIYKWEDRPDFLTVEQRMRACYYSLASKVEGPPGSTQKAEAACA", "details": "NEW KINOMEscan"}, "[2]": {"target": "T2, kinases (KINOMEscan panel) (Homo sapiens, UniProt Q12851)", "T2 sequence (Q12851 1-820)": "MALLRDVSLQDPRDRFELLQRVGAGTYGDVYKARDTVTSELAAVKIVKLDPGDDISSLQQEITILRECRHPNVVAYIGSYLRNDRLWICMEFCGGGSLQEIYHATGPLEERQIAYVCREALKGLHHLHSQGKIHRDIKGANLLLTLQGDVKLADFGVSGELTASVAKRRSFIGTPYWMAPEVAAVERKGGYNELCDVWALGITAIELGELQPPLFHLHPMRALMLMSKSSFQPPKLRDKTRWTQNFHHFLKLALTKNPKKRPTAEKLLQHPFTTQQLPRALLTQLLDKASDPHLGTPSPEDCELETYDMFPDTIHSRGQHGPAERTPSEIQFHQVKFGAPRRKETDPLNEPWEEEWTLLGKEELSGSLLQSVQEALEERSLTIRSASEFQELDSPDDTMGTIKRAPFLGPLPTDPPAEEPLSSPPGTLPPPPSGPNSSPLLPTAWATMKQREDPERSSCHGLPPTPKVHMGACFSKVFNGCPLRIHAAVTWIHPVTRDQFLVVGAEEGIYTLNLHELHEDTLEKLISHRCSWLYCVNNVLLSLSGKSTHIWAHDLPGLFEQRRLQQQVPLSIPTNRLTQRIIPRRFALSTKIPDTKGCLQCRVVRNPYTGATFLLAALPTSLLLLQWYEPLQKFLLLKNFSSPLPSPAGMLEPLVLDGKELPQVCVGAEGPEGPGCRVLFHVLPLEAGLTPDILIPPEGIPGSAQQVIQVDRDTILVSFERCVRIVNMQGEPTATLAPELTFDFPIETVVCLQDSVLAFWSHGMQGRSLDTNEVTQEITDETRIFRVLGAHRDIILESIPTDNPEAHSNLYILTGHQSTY", "details": "kinase MAP4K2; NEW KINOMEscan"}, "[3]": {"target": "T3, kinases (KINOMEscan panel) (Homo sapiens, UniProt Q6XUX3)", "T3 sequence (Q6XUX3 1-929)": "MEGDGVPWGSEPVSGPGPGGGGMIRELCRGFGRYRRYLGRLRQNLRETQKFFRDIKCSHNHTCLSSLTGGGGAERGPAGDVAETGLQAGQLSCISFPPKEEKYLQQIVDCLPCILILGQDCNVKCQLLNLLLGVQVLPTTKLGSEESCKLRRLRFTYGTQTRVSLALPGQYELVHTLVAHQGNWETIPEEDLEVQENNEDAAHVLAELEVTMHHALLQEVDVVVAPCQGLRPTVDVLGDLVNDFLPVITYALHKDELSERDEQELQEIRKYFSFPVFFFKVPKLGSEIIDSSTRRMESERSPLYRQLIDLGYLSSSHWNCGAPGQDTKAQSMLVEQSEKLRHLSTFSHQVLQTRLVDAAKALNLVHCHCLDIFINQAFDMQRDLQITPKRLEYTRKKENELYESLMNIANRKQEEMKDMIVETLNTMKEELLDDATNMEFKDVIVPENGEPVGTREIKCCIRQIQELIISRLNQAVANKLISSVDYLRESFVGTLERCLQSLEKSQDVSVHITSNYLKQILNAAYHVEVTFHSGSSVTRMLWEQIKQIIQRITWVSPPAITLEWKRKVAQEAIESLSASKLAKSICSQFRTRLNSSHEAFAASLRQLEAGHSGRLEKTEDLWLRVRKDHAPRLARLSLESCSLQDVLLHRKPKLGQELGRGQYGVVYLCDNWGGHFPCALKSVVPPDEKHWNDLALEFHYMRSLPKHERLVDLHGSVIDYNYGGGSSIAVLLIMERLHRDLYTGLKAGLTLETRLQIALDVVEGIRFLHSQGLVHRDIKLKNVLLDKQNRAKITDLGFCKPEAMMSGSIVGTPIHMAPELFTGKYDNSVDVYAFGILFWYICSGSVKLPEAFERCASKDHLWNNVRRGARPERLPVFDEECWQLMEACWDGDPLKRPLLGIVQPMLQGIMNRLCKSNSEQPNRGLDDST", "details": "DSTYK; NEW KINOMEscan"}, "[4]": {"target": "kinases (KINOMEscan panel) (Homo sapiens, UniProt P54756)", "sequence (P54756 25-1037)": "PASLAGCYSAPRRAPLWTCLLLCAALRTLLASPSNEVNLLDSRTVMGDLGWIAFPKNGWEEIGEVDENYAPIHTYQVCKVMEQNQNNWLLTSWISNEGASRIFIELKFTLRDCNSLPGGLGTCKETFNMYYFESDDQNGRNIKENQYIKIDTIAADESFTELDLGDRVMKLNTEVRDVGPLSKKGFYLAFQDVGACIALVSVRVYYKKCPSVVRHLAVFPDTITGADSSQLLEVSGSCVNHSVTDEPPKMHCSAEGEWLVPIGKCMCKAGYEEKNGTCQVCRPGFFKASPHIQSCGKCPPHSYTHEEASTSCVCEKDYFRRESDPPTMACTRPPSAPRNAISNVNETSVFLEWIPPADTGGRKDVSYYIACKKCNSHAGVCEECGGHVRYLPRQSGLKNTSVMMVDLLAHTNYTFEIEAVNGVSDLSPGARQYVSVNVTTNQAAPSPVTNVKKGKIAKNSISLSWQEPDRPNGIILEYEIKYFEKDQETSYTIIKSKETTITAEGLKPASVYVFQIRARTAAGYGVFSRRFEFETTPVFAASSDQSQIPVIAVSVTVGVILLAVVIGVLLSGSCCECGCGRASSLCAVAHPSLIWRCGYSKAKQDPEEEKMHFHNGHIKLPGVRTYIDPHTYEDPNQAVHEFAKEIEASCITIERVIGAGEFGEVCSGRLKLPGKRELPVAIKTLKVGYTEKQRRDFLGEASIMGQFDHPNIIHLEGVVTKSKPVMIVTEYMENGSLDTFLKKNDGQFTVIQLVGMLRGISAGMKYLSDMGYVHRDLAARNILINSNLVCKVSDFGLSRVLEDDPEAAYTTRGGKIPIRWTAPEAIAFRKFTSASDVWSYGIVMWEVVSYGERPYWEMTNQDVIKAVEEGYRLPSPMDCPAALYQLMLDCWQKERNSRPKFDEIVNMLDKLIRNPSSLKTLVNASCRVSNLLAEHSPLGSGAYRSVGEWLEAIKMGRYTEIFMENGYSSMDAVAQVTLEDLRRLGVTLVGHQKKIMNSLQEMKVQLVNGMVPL", "details": "kinase EPHA5; NEW KINOMEscan"}}}
{"smiles": "Cc1cccc(-c2nc(Nc3ccc4nn(C)cc4c3)c3ccccc3n2)n1", "note": "[NK167]", "values": [{"measurement": "KINOMEscan ZAP70", "setting": "[1]", "result": 14}, {"measurement": "KINOMEscan MAP4K2", "setting": "[2]", "result": 0}, {"measurement": "KINOMEscan DSTYK", "setting": "[3]", "result": 0}, {"measurement": "KINOMEscan EPHA5", "setting": "[4]", "result": 0}]}
{"smiles": "Cc1cccc(-c2nc(N(C)c3ccc4ncsc4c3)c3ccccc3n2)n1", "note": "[NK-161]", "values": [{"measurement": "KINOMEscan ZAP70", "setting": "[1]", "result": 20}, {"measurement": "KINOMEscan MAP4K2", "setting": "[2]", "result": 6}, {"measurement": "KINOMEscan DSTYK", "setting": "[3]", "result": 0}, {"measurement": "KINOMEscan EPHA5", "setting": "[4]", "result": 9}]}
